Reference: the supplement of paper PMC11061612

Key:
AZD7648 = compound: Cc1cc2ncnn2cc1Nc1ncc2c(n1)n(C1CCOCC1)c(=O)n2C [AZD7648]; conditions: max 10 µM
Procedure, shortened: (§1)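 Cancer cell lines were seeded in 1536-well plates in 7.5 μl DMEM/F12 or RPMI with 10% FBS, held 24 hours at 37°C and 5% CO2, then dosed for 72 hours (final DMSO typically 0.2%). Viability was read by CellTiter-Glo 2.0 luminescence and scaled between blank-well and DMSO-well means. The single-agent IC50 comes from dose responses fitted to a two-parameter logistic curve with a non-linear mixed effects model.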

Crizotinib = compound: C[C@@H](Oc1cc(-c2cnn(C3CCNCC3)c2)cnc1N)c1c(Cl)ccc(F)c1Cl [Crizotinib]; conditions: max 10 µM
Procedure, shortened: as §1

Venetoclax = compound: CC1(C)CCC(CN2CCN(c3ccc(C(=O)NS(=O)(=O)c4ccc(NCC5CCOCC5)c([N+](=O)[O-])c4)c(Oc4cnc5[nH]ccc5c4)c3)CC2)=C(c2ccc(Cl)cc2)C1 [Venetoclax]; conditions: max 1 µM
Procedure, shortened: as §1

Gemcitabine = compound: Nc1ccn([C@@H]2O[C@H](CO)[C@@H](O)C2(F)F)c(=O)n1 [Gemcitabine]; conditions: max 0.3 µM
Procedure, shortened: as §1

Prexasertib = compound: COc1cccc(OCCCN)c1-c1cc(Nc2cnc(C#N)cn2)n[nH]1 [Prexasertib]; conditions: max 1 µM
Procedure, shortened: as §1

AZD4320 = compound: CN(CC[C@H](CSC1=CC=CC=C1)NC2=C(C=C(C=C2)S(=O)(=O)NC(=O)C3=CC=C(C=C3)N4CCC(CC4)[C@H](C5=CC=CC=C5C6=CC=C(C=C6)Cl)O)S(=O)(=O)C(F)(F)F)CCO [AZD4320]; conditions: max 1 µM
Procedure, shortened: as §1

Olaparib = compound: O=C(c1cc(Cc2n[nH]c(=O)c3ccccc23)ccc1F)N1CCN(C(=O)C2CC2)CC1 [Olaparib]; conditions: max 10 µM
Procedure, shortened: as §1

AZD5991 = compound: Cc1c2c(nn1C)CSCc1cc(n(C)n1)CSc1cc(c3ccccc3c1)OCCCc1c(C(=O)O)n(C)c3c-2c(Cl)ccc13 [AZD5991]; conditions: max 1 µM
Procedure, shortened: as §1

AZD1390 = compound: CC(C)n1c(=O)n(C)c2cnc3cc(F)c(-c4ccc(OCCCN5CCCCC5)nc4)cc3c21 [AZD1390]; conditions: max 0.3 µM
Procedure, shortened: as §1

Selumetinib = compound: Cn1cnc2c(F)c(Nc3ccc(Br)cc3Cl)c(C(=O)NOCCO)cc21 [Selumetinib]; conditions: max 10 µM
Procedure, shortened: as §1

AZD8186 = compound: C[C@@H](Nc1cc(F)cc(F)c1)c1cc(C(=O)N(C)C)cc2c(=O)cc(N3CCOCC3)oc12 [AZD8186]
Procedure, shortened: as §1

AZD5153 = compound: COc1nnc2ccc(N3CCC(c4ccc(OCCN5CCN(C)C(=O)[C@H]5C)cc4)CC3)nn12 [AZD5153]; conditions: max 1 µM
Procedure, shortened: as §1

AZD5363 = compound: C1CN(CCC1(C(=O)N[C@@H](CCO)C2=CC=C(C=C2)Cl)N)C3=NC=NC4=C3C=CN4 [AZD5363]; conditions: max 10 µM
Procedure, shortened: as §1

Gefitinib = compound: COc1cc2ncnc(Nc3ccc(F)c(Cl)c3)c2cc1OCCCN1CCOCC1 [Gefitinib]; conditions: max 10 µM
Procedure, shortened: as §1

Doxorubicin = compound: COc1cccc2c1C(=O)c1c(O)c3c(c(O)c1C2=O)C[C@@](O)(C(=O)CO)C[C@@H]3O[C@H]1C[C@H](N)[C@H](O)[C@H](C)O1 [Doxorubicin]; conditions: max 1 µM
Procedure, shortened: as §1

AZD6738 = compound: C[C@@H]1COCCN1C2=NC(=NC(=C2)C3(CC3)[S@](=N)(=O)C)C4=C5C=CNC5=NC=C4 [AZD6738]; conditions: max 10 µM
Procedure, shortened: as §1

Taselisib = compound: Cc1nc(-c2cn3c(n2)-c2ccc(-c4cnn(C(C)(C)C(N)=O)c4)cc2OCC3)n(C(C)C)n1 [Taselisib]; conditions: max 10 µM
Procedure, shortened: as §1

SRA737 = compound: N#Cc1cnc(Nc2cc(NC[C@H]3CNCCO3)c(C(F)(F)F)cn2)cn1 [SRA737]; conditions: max 10 µM
Procedure, shortened: as §1

Paclitaxel = compound: CC(=O)O[C@H]1C(=O)[C@@]2(C)[C@H]([C@H](OC(=O)c3ccccc3)[C@]3(O)C[C@H](OC(=O)[C@H](O)[C@@H](NC(=O)c4ccccc4)c4ccccc4)C(C)=C1C3(C)C)[C@]1(OC(C)=O)CO[C@@H]1C[C@@H]2O [Paclitaxel]; conditions: max 3 µM
Procedure, shortened: as §1

SG3199 = compound: CC1=CN2[C@@H](C1)C=NC3=CC(=C(C=C3C2=O)OC)OCCCCCOC4=C(C=C5C(=C4)N=C[C@@H]6CC(=CN6C5=O)C)OC [SG3199]; conditions: max 0.001 µM
Procedure, shortened: as §1

SN-38 = compound: CCc1c2c(nc3ccc(O)cc13)-c1cc3c(c(=O)n1C2)COC(=O)[C@]3(O)CC [SN-38]; conditions: max 0.3 µM
Procedure, shortened: as §1

AZD2811 = compound: CCN(CCO)CCCOc1ccc2c(Nc3cc(CC(=O)Nc4cccc(F)c4)[nH]n3)ncnc2c1 [AZD2811]; conditions: max 1 µM
Procedure, shortened: as §1

Lapatinib = compound: CS(=O)(=O)CCNCc1ccc(-c2ccc3ncnc(Nc4ccc(OCc5cccc(F)c5)c(Cl)c4)c3c2)o1 [Lapatinib]; conditions: max 10 µM
Procedure, shortened: as §1

AZD0156 = compound: CN(C)CCCOc1ccc(-c2ccc3ncc4c(c3c2)n(C2CCOCC2)c(=O)n4C)cn1 [AZD0156]; conditions: max 3 µM
Procedure, shortened: as §1

Etoposide = compound: COc1cc([C@@H]2c3cc4c(cc3[C@@H](O[C@@H]3O[C@@H]5CO[C@@H](C)O[C@H]5[C@H](O)[C@H]3O)[C@H]3COC(=O)[C@H]23)OCO4)cc(OC)c1O [Etoposide]; conditions: max 10 µM
Procedure, shortened: as §1

AZD1775 = compound: C=CCn1c(=O)c2cnc(Nc3ccc(N4CCN(C)CC4)cc3)nc2n1-c1cccc(C(C)(C)O)n1 [AZD1775]; conditions: max 3 µM
Procedure, shortened: as §1

MK-2206 = compound: NC1(c2ccc(-c3nc4ccn5c(=O)[nH]nc5c4cc3-c3ccccc3)cc2)CCC1 [MK-2206]; conditions: max 10 µM
Procedure, shortened: as §1

Alisertib = compound: COc1cc(Nc2ncc3c(n2)-c2ccc(Cl)cc2C(c2c(F)cccc2OC)=NC3)ccc1C(=O)O [Alisertib]; conditions: max 10 µM
Procedure, shortened: as §1

Dasatinib = compound: CC1=C(C(=CC=C1)Cl)NC(=O)C2=CN=C(S2)NC3=CC(=NC(=N3)C)N4CCN(CC4)CCO [Dasatinib]; conditions: max 2 µM
Procedure, shortened: as §1

5-Fluorouracil = compound: O=c1[nH]cc(F)c(=O)[nH]1 [5-Fluorouracil]; conditions: max 20 µM
Procedure, shortened: as §1

Palbociclib = compound: CC(=O)c1c(C)c2cnc(Nc3ccc(N4CCNCC4)cn3)nc2n(C2CCCC2)c1=O [Palbociclib]; conditions: max 10 µM
Procedure, shortened: as §1

[1] = compound: O=C(Nc1ccc2[nH]nc(-c3ccncc3)c2c1)[C@@H]1CCN(CC(=O)N2CCN(c3ccc(-c4ncccn4)cc3)CC2)C1; conditions: max 5 µM
Procedure, shortened: as §1

Carboplatin = compound: C1CC(C1)(C(=O)[O-])C(=O)[O-].N.N.[Pt+2] [Carboplatin]; conditions: max 10 µM
Procedure, shortened: as §1

Trametinib = compound: CC(=O)Nc1cccc(-n2c(=O)n(C3CC3)c(=O)c3c(Nc4ccc(I)cc4F)n(C)c(=O)c(C)c32)c1 [Trametinib]; conditions: max 1 µM
Procedure, shortened: as §1

Savolitinib = compound: C[C@@H](c1ccc2nccn2c1)n1nnc2ncc(-c3cnn(C)c3)nc21 [Savolitinib]; conditions: max 1 µM
Procedure, shortened: as §1

Capivasertib = compound: C1CN(CCC1(C(=O)N[C@@H](CCO)C2=CC=C(C=C2)Cl)N)C3=NC=NC4=C3C=CN4 [Capivasertib]; conditions: max 10 µM
Procedure, shortened: as §1

Cell Line	IC50, cell viability 72 h (AZD7648) [µM]	IC50, cell viability 72 h (Crizotinib) [µM]	IC50, cell viability 72 h (Venetoclax) [µM]	IC50, cell viability 72 h (Gemcitabine) [µM]	IC50, cell viability 72 h (Prexasertib) [µM]	IC50, cell viability 72 h (AZD4320) [µM]	IC50, cell viability 72 h (Olaparib) [µM]	IC50, cell viability 72 h (AZD5991) [µM]	IC50, cell viability 72 h (AZD1390) [µM]	IC50, cell viability 72 h (Selumetinib) [µM]	IC50, cell viability 72 h (AZD8186; max 10 µM) [µM]	IC50, cell viability 72 h (AZD5153) [µM]	IC50, cell viability 72 h (AZD5363) [µM]	IC50, cell viability 72 h (Gefitinib) [µM]	IC50, cell viability 72 h (Doxorubicin) [µM]	IC50, cell viability 72 h (AZD6738) [µM]	IC50, cell viability 72 h (Taselisib) [µM]	IC50, cell viability 72 h (SRA737) [µM]	IC50, cell viability 72 h (Paclitaxel) [µM]	IC50, cell viability 72 h (SG3199) [µM]	IC50, cell viability 72 h (SN-38) [µM]	IC50, cell viability 72 h (AZD2811) [µM]	IC50, cell viability 72 h (Lapatinib) [µM]	IC50, cell viability 72 h (AZD0156) [µM]	IC50, cell viability 72 h (Etoposide) [µM]	IC50, cell viability 72 h (AZD1775) [µM]	IC50, cell viability 72 h (MK-2206) [µM]	IC50, cell viability 72 h (Alisertib) [µM]	IC50, cell viability 72 h (Dasatinib) [µM]	IC50, cell viability 72 h (5-Fluorouracil) [µM]	IC50, cell viability 72 h (Palbociclib) [µM]	IC50, cell viability 72 h [1] [µM]	IC50, cell viability 72 h (Carboplatin) [µM]	IC50, cell viability 72 h (Trametinib) [µM]	IC50, cell viability 72 h (Savolitinib) [µM]	IC50, cell viability 72 h (AZD8186; max 3 µM) [µM]	IC50, cell viability 72 h (Capivasertib) [µM]
Becker (Low Grade Glioma)	> 10	> 10	> 1	> 0.3	0.0941	> 1	> 10	> 1	> 0.3	> 10	3.9	> 1	> 10	> 10	> 1	> 10	3.43	> 10	0.00648	> 0.001	0.0285	> 1	> 10	> 3	> 10	> 3	> 10	> 10	> 2	> 20	> 10	> 5	> 10	> 1	> 1		
CHL-1 (Melanoma)	> 10	> 10	> 1	0.218	0.0768	> 1	> 10	> 1	> 0.3	> 10	> 10	0.594	> 10	> 10	> 1	2.73	8.26	> 10	0.0192	> 0.001	0.143	> 1	9.96	> 3	8.95	1.68	> 10	> 10	> 2	> 20	> 10	> 5	> 10	> 1	> 1		
CML-T1 (Chronic Myelogenous Leukemia)	> 10	0.692	0.585	0.0125	0.00627	0.0541	5.75	> 1	> 0.3	4	> 10	> 1	7.38	> 10	0.0628	1.11	> 10	0.588	0.0048	> 0.001	0.000718	> 1	> 10	> 3	0.0926	0.429	2.05	0.142	< 0.002	19.5	0.222	> 5	> 10	0.262	> 1		
COLO-684 (Endometrial Carcinoma)	> 10	> 10	> 1	0.134	0.0199	> 1	> 10	> 1	> 0.3	> 10	8.93	0.578	4.51	> 10	> 1	4.44	4.2	5.2	0.558	> 0.001	0.228	> 1	> 10	> 3	> 10	0.701	7.21	> 10	> 2	> 20	> 10	> 5	> 10	> 1	> 1		
ES-2 (Ovarian Carcinoma)	> 10	> 10	> 1		0.0401	> 1	> 10	> 1	> 0.3	7.43		0.875		> 10	> 1	3.78	> 10			> 0.001	0.0145	> 1	> 10	> 3		0.476	4.4	0.596	> 2		> 10			0.128	> 1	> 3	> 10
